Here are results for 3 molecules from paper PMC9896555, “Cyclic Acetals as Novel Long-Lasting Mosquito Repellents” (Journal of Agricultural and Food Chemistry, 2023).

Experiment [1] relates to Aedes albopictus. As to the kind of experiment: Protection time at 0.17 mg/cm2, human-bait technique. The conditions noted are these: for Average PT >95% (% coefficient of variation) / Estimated 100% PT (complete protection time, mean±SE): at the dose of 0.17mg/cm2; for Estimated 100% PT (complete protection time, mean±SE): Kaplan–Meier estimate; for pest or weed control at 0.17 mg/cm2, 0.17 mg/cm2: Aedes albopictus, topical, read-out: Protection time PE%; for Protection time (95% protection): dose of 0.17 mg/cm^2, tests ended after 8 h. The format is in vivo. How it is done: To evaluate the protection time of derivatives, the PE % was measured with 100 μL of a 5% ethanol solution, corresponding to 0.17 mg/cm^2 of exposed skin, under the same laboratory conditions. Mosquito-exposed skin was treated with 100 μL of ethanol, as the negative hand control. For each volunteer (up to 8), the test was performed every hour, up to 8 h from the application. The protection time of DEET and Icaridin was measured under the same conditions. Since these trials were run in parallel with those aimed to profile the cytotoxicity of the compounds (paragraph 2.6), we interrupted the experiments for those compounds showing to have higher cytotoxicity than Icaridin and DEET as soon as the results were available. For this reason, the number of volunteers differs among the compounds.
The average time until protection which was higher than 95% protection time was considered for each compound. Moreover, for the compounds tested on at least three volunteers, the complete (100%) protection time was also estimated (SPSS 28.01.0) using the Kaplan–Meier survivor function procedure.[22]

Experiment [2] deals with Aedes albopictus. As to the kind of experiment: Effective dose / protection efficacy, human-bait technique. Conditions: for 100% PE: Table S1; for pest or weed control at 0.081 µg/cm2, 0.081 µg/cm2 / pest or weed control at 0.17 µg/cm2, 0.17 µg/cm2 / pest or weed control at 0.33 µg/cm2, 0.33 µg/cm2 / pest or weed control at 0.5 µg/cm2, 0.5 µg/cm2 / pest or weed control at 0.83 µg/cm2, 0.83 µg/cm2 / pest or weed control at 1.7 µg/cm2, 1.7 µg/cm2 / pest or weed control at 8.3 µg/cm2, 8.3 µg/cm2 / pest or weed control at 16.7 µg/cm2, 16.7 µg/cm2 / pest or weed control at 83.3 µg/cm2, 83.3 µg/cm2: Aedes albopictus, topical, read-out: Protection efficacy PE%; for Protection efficacy (dose to obtain complete protection (100%) from bite attempts): applied on skin of volunteers, 3 min exposure. The class given is in vivo. As for the experimental part:
The repellence of DEET, Icaridin (both supplied by Istituto Biochimico VEBI s.r.l.), acetals, and the synthesized hydroxyacetals was evaluated againstAedes albopictususing the human-bait technique (to simulate the condition of human skin on which repellents will be applied).[22]A. albopictuswas reared and tested at 26 ± 2 °C, ≥60 ± 10% relative humidity (RH), and at 14:10 h light/dark photoperiod, within Plexiglas cylindrical laboratory cages (35 cm diameter, 60 cm length) with one end closed by a net. During the tests, cages contained ≈150 nulliparous, 4–7 day-old, nonblood-fed females. For each compound to be tested, up to six volunteers participated in the trial.
The study was approved by the Regional Ethics Committee for Clinical Trials of Tuscany Region with the registered number 20383. Volunteers agreed to take part in the experiments following informed consent; only volunteers non-allergic to mosquito bites participated in the trials. On the day of the bioassay, they had no contact with lotions, perfumes, oils, or perfumed soaps. They wore latex surgical gloves, in which a dorsal square area of 30 cm^2 was cut open. Mosquito-exposed skin was treated with 50 μL of ethanol, as the negative hand control. The other hand was treated with 50 μL of the tested compounds in ethanol solution (dosages corresponding to 0.081, 0.17, 0.33, 0.5, 0.83, 1.7, 8.3, 16.7, and 83.3 μg/cm^2). Both hands were presented in the same test cage. The number of probing mosquitoes in a 3 min exposure period was recorded. During each test, the control and the treated hand were presented interchanged to verify the mosquitoes’ readiness to bite. Trials were considered valid only if at least 30 mosquitoes performed probing behavior on the control hand before each repellent dosage was tested. The protection efficacy (PE %) obtained from all replicates was calculated, according to the WHO guidelines[31] using this formula [drawing 1]
To evaluate the protection efficacy, volunteers applied increasing doses of the compounds to the skin on the back of their hands (30 cm^2, while the rest was covered with a rubber glove) and counted the number of mosquitoes attempting to bite; the solvent only was used on the control hand. The protection (percentage of repelled mosquitoes) was calculated as reported in the Material and Methods section.

The structures appear in SMILES notation. Read-outs that look alike come from different tables or passages of the source.

In the case of `CCCCCC1(CCCCC)OCC(CO)O1` (racemic) [23a], the “Protection time PE%” value with Aedes albopictus [1] (0.17mg/cm2, 0 min) was determined as 100%; with Aedes albopictus [1] (0.17mg/cm2, 1 h) it was 99.62%; in the experiment with Aedes albopictus [1] (0.17mg/cm2, 2 h), 98.79%; in the experiment with Aedes albopictus [1] (0.17mg/cm2, 3 h), 97.92%; with Aedes albopictus [1] (0.17mg/cm2, 4 h), 98.99%; with Aedes albopictus [1] (0.17mg/cm2, 5 h) it was 88.68%. In addition, the “Protection time PE%” value with Aedes albopictus [1] (0.17mg/cm2, 6 h) worked out at 97.92%; in the experiment with Aedes albopictus [1] (0.17mg/cm2, 7 h), 92.53%; in the experiment with Aedes albopictus [1] (0.17mg/cm2, 8 h) it was 92.80%. In addition, the “Average PT >95% (% coefficient of variation)” value in the experiment on Aedes albopictus [1] was 360 (4.8) min. Moreover, in the experiment with Aedes albopictus [1], the “Estimated 100% PT (complete protection time, mean±SE)” value was 240 ± 65 min. For the same molecule, the “Protection efficacy PE%” value amounted to 33.33% in the experiment with Aedes albopictus [2] (0.081 µg/cm2); 54.16% in the experiment on Aedes albopictus [2] (0.17 µg/cm2); 97.01% in the experiment with Aedes albopictus [2] (0.33 µg/cm2); 76.81% in the experiment on Aedes albopictus [2] (0.5 µg/cm2); 76.67% in the experiment with Aedes albopictus [2] (0.83 µg/cm2); 93.75% with Aedes albopictus [2] (1.7 µg/cm2). Moreover, the “Protection efficacy PE%” value in the experiment with Aedes albopictus [2] (8.3 µg/cm2) came to 88.23%; in the experiment with Aedes albopictus [2] (16.7 µg/cm2), 98.04%; with Aedes albopictus [2] (83.3 µg/cm2) it was 100%. For the same molecule, in the experiment on Aedes albopictus [2], the “100% PE” value is 83.3 µg/cm2.

Turning to `CCCCCCCC1(C)OCC(CO)O1` (centres unmarked) [15a], the pest or weed control at 0.17 mg/cm2, 0.17 mg/cm2 stood at 100% with Aedes albopictus [1] (0.17mg/cm2, 1 h); 99.6% in the experiment on Aedes albopictus [1] (0.17mg/cm2, 2 h); 100% with Aedes albopictus [1] (0.17mg/cm2, 3 h); 100% with Aedes albopictus [1] (0.17mg/cm2, 4 h); 97.7% with Aedes albopictus [1] (0.17mg/cm2, 5 h); 98.5% in the experiment with Aedes albopictus [1] (0.17mg/cm2, 6 h). Moreover, the pest or weed control at 0.17 mg/cm2, 0.17 mg/cm2 in the experiment on Aedes albopictus [1] (0.17mg/cm2, 7 h) came to 97.5%; in the experiment on Aedes albopictus [1] (0.17mg/cm2, 8 h), 96.7%. For the same molecule, the “Average PT >95% (% coefficient of variation)” value in the experiment on Aedes albopictus [1] was 480 (6.0) min. In addition, in the experiment on Aedes albopictus [1], the “Estimated 100% PT (complete protection time, mean±SE)” value was 380 ± 61 min. Also, in the experiment with Aedes albopictus [1], the “Protection time (95% protection)” value is on record as 8 h. In addition, the pest or weed control at 0.081 µg/cm2, 0.081 µg/cm2 with Aedes albopictus [2] (0.081 µg/cm2) was found to be 7.74%. In addition, the pest or weed control at 0.17 µg/cm2, 0.17 µg/cm2 with Aedes albopictus [2] (0.17 µg/cm2) turned out to be 35.8%. In the experiment with Aedes albopictus [2] (0.33 µg/cm2), the pest or weed control at 0.33 µg/cm2, 0.33 µg/cm2 was found to be 45.9%. Moreover, the pest or weed control at 0.5 µg/cm2, 0.5 µg/cm2 with Aedes albopictus [2] (0.5 µg/cm2) stood at 54.7%. Further, in the experiment on Aedes albopictus [2] (0.83 µg/cm2), the pest or weed control at 0.83 µg/cm2, 0.83 µg/cm2 worked out at 62.2%. Also, in the experiment with Aedes albopictus [2] (1.7 µg/cm2), the pest or weed control at 1.7 µg/cm2, 1.7 µg/cm2 worked out at 89.4%. Moreover, in the experiment on Aedes albopictus [2] (8.3 µg/cm2), the pest or weed control at 8.3 µg/cm2, 8.3 µg/cm2 came out at 98.8%. The pest or weed control at 16.7 µg/cm2, 16.7 µg/cm2 in the experiment with Aedes albopictus [2] (16.7 µg/cm2) is 100%. Moreover, in the experiment on Aedes albopictus [2] (83.3 µg/cm2), the pest or weed control at 83.3 µg/cm2, 83.3 µg/cm2 amounted to 100%. For the same molecule, the “100% PE” value with Aedes albopictus [2] is listed as 16.7 µg/cm2. The “Protection efficacy (dose to obtain complete protection (100%) from bite attempts)” value with Aedes albopictus [2] was 16.7 μg/cm^2.

For `CCCCC1(CCCC)OCC(C)(CO)CO1` [16b], the pest or weed control at 0.17 mg/cm2, 0.17 mg/cm2 in the experiment with Aedes albopictus [1] (0.17mg/cm2, 1 h) is 98.6%; in the experiment with Aedes albopictus [1] (0.17mg/cm2, 2 h), 97.5%; with Aedes albopictus [1] (0.17mg/cm2, 3 h) it was 99.5%; in the experiment on Aedes albopictus [1] (0.17mg/cm2, 4 h), 96.3%; with Aedes albopictus [1] (0.17mg/cm2, 5 h), 95.1%; in the experiment with Aedes albopictus [1] (0.17mg/cm2, 6 h), 93.7%. In addition, the pest or weed control at 0.17 mg/cm2, 0.17 mg/cm2 is 96.2% in the experiment with Aedes albopictus [1] (0.17mg/cm2, 7 h) and 94.6% with Aedes albopictus [1] (0.17mg/cm2, 8 h). Further, the “Average PT >95% (% coefficient of variation)” value in the experiment with Aedes albopictus [1] is given as 420 (8.0) min. Moreover, the “Estimated 100% PT (complete protection time, mean±SE)” value in the experiment with Aedes albopictus [1] was 180 ± 64 min. Moreover, the “Protection time (95% protection)” value in the experiment with Aedes albopictus [1] is 7 h. In addition, the pest or weed control at 0.081 µg/cm2, 0.081 µg/cm2 with Aedes albopictus [2] (0.081 µg/cm2) came to 0%. The pest or weed control at 0.17 µg/cm2, 0.17 µg/cm2 in the experiment with Aedes albopictus [2] (0.17 µg/cm2) stood at 40.6%. Moreover, the pest or weed control at 0.33 µg/cm2, 0.33 µg/cm2 with Aedes albopictus [2] (0.33 µg/cm2) came to 31.2%. Also, in the experiment with Aedes albopictus [2] (0.5 µg/cm2), the pest or weed control at 0.5 µg/cm2, 0.5 µg/cm2 was found to be 68.4%. In the experiment with Aedes albopictus [2] (0.83 µg/cm2), the pest or weed control at 0.83 µg/cm2, 0.83 µg/cm2 turned out to be 94.7%. The pest or weed control at 1.7 µg/cm2, 1.7 µg/cm2 in the experiment with Aedes albopictus [2] (1.7 µg/cm2) came out at 100%. For the same molecule, the pest or weed control at 8.3 µg/cm2, 8.3 µg/cm2 in the experiment with Aedes albopictus [2] (8.3 µg/cm2) was 100%. The pest or weed control at 16.7 µg/cm2, 16.7 µg/cm2 in the experiment with Aedes albopictus [2] (16.7 µg/cm2) came out at 100%. The pest or weed control at 83.3 µg/cm2, 83.3 µg/cm2 in the experiment with Aedes albopictus [2] (83.3 µg/cm2) was determined as 100%. In addition, the “100% PE” value in the experiment on Aedes albopictus [2] was determined as 1.7 µg/cm2. In addition, the “Protection efficacy (dose to obtain complete protection (100%) from bite attempts)” value with Aedes albopictus [2] came out at 1.7 μg/cm^2.
